Source: patent US10010614B2, “Derivatives of GLP-1 like peptides, and uses thereof” (Novo Nordisk A/S, priority 2013, dated 2018)
Numbered stars: 1 amine (or outer) side, 2 acyl side, 3 side chain; on linkers, the order of the positions; unused ones are H or OH. Square brackets hold non-standard residues; d marks the D form. Side chains are listed from the residue outwards. Peptide text beside a SMILES is read from it. * marks the point of attachment. C20 diacid = O=C(O)CCCCCCCCCCCCCCCCCCC(=O)*; γGlu = O=C(O)[C@H](CCC(=O)[*:2])N[*:1]; Trx = NC[C@H]1CC[C@H](C(=O)O)CC1; AEEA = NCCOCCOCC(=O)O; Aib = CC(C)(N)C(=O)O

How the values were obtained:
[1] = target: T1, human GLP-1 receptor (Homo sapiens, UniProt P43220); assay: In vitro potency, CRE luciferase reporter gene assay in BHK cells expressing the human GLP-1 receptor; assay type: cell-based; settings: whole cell reporter gene assay, 3 h incubation, no HSA, averages of at least two replicates
T1 construct: expressed in transfected cells; host or cells: membranes prepared from BHK cells (parent line BHKTS13), clone FCW467-12A
Method in brief: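 Stably transfected BHK cells (5×10^3/well) expressing human GLP-1R with a CRE-luciferase reporter; compounds diluted in buffer with 2% ovalbumin and 0.2% Pluronic F-68, final 1×10^−7 to 1×10^−14 M. Incubated 3 h at 37 °C, 5% CO2, then luminescence read; potency from non-linear log(agonist)–response fit, mean of ≥2 replicates.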

[2] = target: T1, human GLP-1 receptor; assay: GLP-1 receptor binding, competitive binding assay (125I-GLP-1, SPA) on isolated membranes;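 further: test compounds added at a range of concentrations to membranes from cells expressing the human GLP-1 receptor, scored by displacement of labelled ligand, read with WGA SPA beads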
Procedure: The purpose of this example is to test the receptor binding of the GLP-1 derivatives in vitro. The receptor binding is a measure of affinity of a derivative for the human GLP-1 receptor.
In this type of assay a labelled ligand (in this case ^125I-GLP-1) is bound to the receptor. Each derivative is added in a series of concentrations to isolated membranes containing the human GLP-1 receptor and displacement of the labelled ligand is monitored. The receptor binding is reported as the concentration at which half of the labelled ligand is displaced from the receptor, the IC50 value.
The following chemicals were used in the assay: Human serum albumin (HSA) (Sigma A1653), DMEM w/o phenol red (Gibco 11880-028), Pen/strep (Invitrogen 15140-122), G418 (Invitrogen 10131-027), 1 M Hepes (Gibco 15630), EDTA (Invitrogen 15575-038), PBS (Invitrogen 14190-094), fetal calf serum (Invitrogen 16140-071), EGTA, MgCl2 (Merck 1.05832.1000), Tween 20 (Amresco 0850C335), SPA particles (wheat germ agglutinin (WGA) SPA beads, Perkin Elmer RPNQ0001), [^125I]-GLP-1]-(7-36)NH2 (produced in-house), OptiPlate™-96 (Packard 6005290).
Buffer 1 consisted of 20 mM Na-HEPES plus 10 mM EDTA and pH was adjusted to 7.4. Buffer 2 consisted of 20 mM Na-HEPES plus 0.1 mM EDTA and pH was adjusted to 7.4. Assay buffer consisted of 50 mM HEPES supplemented with 5 mM EGTA, 5 mM MgCl2, 0.005% Tween 20 and pH was adjusted to 7.4. An 8% albumin stock consisted of HSA dissolved at 8% (w/v) in assay buffer. An 0.02% albumin stock consisted of HSA dissolved at 0.02% (w/v) in assay buffer.
The cells express the human GLP-1 receptor.
The cells were grown at 5% CO2 in DMEM, 10% fetal calf serum, 1% Pen/Strep (Penicillin/Streptomycin) and 1.0 mg/ml of the selection marker G418.
To make a membrane preparation the cells were grown to approximately 80% confluence. The cells were washed twice in phosphate-buffered saline and harvested. The cells were pelleted using a brief centrifugation and the cell pellet was kept on ice. The cell pellet was homogenised with ULTRA-THURRAX™ dispersing instrument for 20-30 seconds in a suitable amount of buffer 1 (e.g., 10 ml). The homogenate was centrifuged for 15 minutes. The pellet was re-suspended (homogenised) in 10 ml buffer 2 and centrifuged. This step was repeated once more. The resulting pellet was re-suspended in buffer 2 and the protein concentration was determined. The membranes were aliquoted and stored at minus 80° C.
For the receptor binding assay in the presence of low HSA (0.005%) 50 μl of the assay buffer was added to each well of an assay plate.
For the receptor binding assay in the presence of high HSA (2%) 50 μl of the 8% albumin stock was added to each well of an assay plate.
Cell membrane aliquots were thawed and diluted to their working concentration. Fifty μl were added to each well in the assay plate.
WGA SPA beads were suspended in assay buffer at 20 mg/ml. The suspension was diluted to 10 mg/ml in assay buffer just prior to addition to the assay plate. Fifty μl were added to each well in the assay plate.
The incubation was started by adding 25 μl of 480 pM solution of [^125I]-GLP-1]-(7-36)NH2 to each well of the assay plate. A 25 μl aliquot was reserved for measuring total counts/well.
The assay plate was incubated for 2 h at 30° C.
The assay plate was centrifuged for 10 min.
The assay plate was read in a Packard TopCount NXT instrument.
The data from the TopCount instrument were transferred to GraphPad Prism software. The software averaged the values for the replicates and performed a non-linear regression. IC50 values were calculated by the software and reported in nM.

[3] = Pharmacokinetic study in minipigs (i.v.); assay type: in vivo; settings: male, Göttingen, minipig, plasma, iv; read-out: Terminal half-live (converted)
Procedure: The purpose of this study is to determine the protraction in vivo of the GLP-1 derivatives after i.v. administration to minipigs, i.e. the prolongation of their time in the body and thereby their time of action. This is done in a pharmacokinetic (PK) study, where the terminal half-life of the derivative in question is determined. By terminal half-life is meant the time it takes to halve a certain plasma concentration in the terminal elimination phase.
The derivatives of Examples 1-5 were dosed with 2 nmol/kg, the derivative of Example 6 was dosed with 5 nmol/kg, and the derivatives of Examples 7-9 were dosed with 15 nmol/kg.
Male Göttingen minipigs were obtained from Ellegaard Göttingen Minipigs (Dalmose, Denmark) approximately 7-14 months of age and weighing approximately 16-35 kg were used in the studies. The minipigs were housed either individually (pigs with permanent catheters) or in a group and fed restrictedly once or twice daily with SDS minipig diet (Special Diets Services, Essex, UK).
After at least 2 weeks of acclimatisation two permanent central venous catheters were implanted in vena cava caudalis or cranialis in each animal. The animals were allowed 1 week recovery after the surgery, and were then used for repeated pharmacokinetic studies with a suitable wash-out period between successive GLP-1 derivative dosings.
The GLP-1 derivatives were dissolved in 50 mM sodium phosphate, 70-145 mM sodium chloride, 0.05% tween 80, pH 7.4 to a concentration of usually from 20-60 nmol/ml.
Intravenous injections (the volume corresponding to for example 0.050-0.125 ml/kg) of the compounds were given through one catheter or through the venflon, and blood was sampled at predefined time points for up till 25 days post dosing (preferably through the other catheter or by venipuncture). Blood samples (for example 0.8 ml) were collected in EDTA buffer (8 mM) and then centrifuged at 4° C. and 1942G for 10 minutes.
Plasma was pipetted into Micronic tubes on dry ice, and kept at −20° C. until analysed for plasma concentration of the respective GLP-1 compound using LOCI. Individual plasma concentration-time profiles were analyzed by a non-compartmental pharmacokinetic method in Phoenix v. 6.2 (Pharsight Inc., Mountain View, Calif., USA), or other relevant software for PK analysis, and the resulting terminal half-lives (harmonic mean) determined.

[4] = High HSA IC50 (nM), high serum albumin (2.0% HSA final assay concentration)
[5] = Low HSA IC50 (nM), low serum albumin (max. 0.001% final assay concentration)

T1 sequence (P43220 24-463): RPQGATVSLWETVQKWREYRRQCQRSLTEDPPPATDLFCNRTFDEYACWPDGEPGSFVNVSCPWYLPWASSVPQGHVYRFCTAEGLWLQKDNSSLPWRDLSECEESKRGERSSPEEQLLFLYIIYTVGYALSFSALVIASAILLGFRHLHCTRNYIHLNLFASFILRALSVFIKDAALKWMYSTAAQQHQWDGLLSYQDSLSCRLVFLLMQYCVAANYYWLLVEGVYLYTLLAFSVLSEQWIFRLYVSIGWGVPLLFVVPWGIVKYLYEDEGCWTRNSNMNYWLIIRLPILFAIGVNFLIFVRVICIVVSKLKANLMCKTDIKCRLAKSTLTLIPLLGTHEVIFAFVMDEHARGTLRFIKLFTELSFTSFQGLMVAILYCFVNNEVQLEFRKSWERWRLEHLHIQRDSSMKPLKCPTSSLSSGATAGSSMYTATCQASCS

SMILES	EC50 [1] [nM]	IC50 [2, 4] [nM]	IC50 [2, 5] [nM]	half-life [3] [h]
CC[C@H](C)[C@H](NC(=O)[C@H](Cc1ccccc1)NC(=O)[C@H](CCC(=O)O)NC(=O)[C@H](CCCNC(=N)N)NC(=O)[C@H](C)NC(=O)[C@H](C)NC(=O)[C@H](CCC(N)=O)NC(=O)[C@H](CCC(=O)O)NC(=O)[C@H](CCC(=O)O)NC(=O)[C@H](CC(C)C)NC(=O)[C@H](Cc1ccc(O)cc1)NC(=O)[C@H](CO)NC(=O)[C@H](CO)NC(=O)[C@@H](NC(=O)[C@H](CC(=O)O)NC(=O)[C@H](CO)NC(=O)[C@@H](NC(=O)[C@H](Cc1ccccc1)NC(=O)[C@@H](NC(=O)CNC(=O)[C@H](CCC(=O)O)NC(=O)C(C)(C)NC(=O)[C@@H](N)Cc1c[nH]cn1)[C@@H](C)O)[C@@H](C)O)C(C)C)C(=O)N[C@@H](C)C(=O)N[C@@H](Cc1c[nH]c2ccccc12)C(=O)N[C@@H](CC(C)C)C(=O)N[C@H](C(=O)N[C@@H](CCCNC(=N)N)C(=O)NCC(=O)N[C@@H](CCCNC(=N)N)C(=O)NCC(=O)N[C@@H](CCCCNC(=O)COCCOCCNC(=O)COCCOCCNC(=O)CC[C@H](NC(=O)[C@H]1CC[C@H](CNC(=O)CCCCCCCCCCCCCCCCCCC(=O)O)CC1)C(=O)O)C(=O)NCC(=O)NCC(=O)N[C@@H](CO)C(=O)N[C@@H](CCCCNC(=O)COCCOCCNC(=O)COCCOCCNC(=O)CC[C@H](NC(=O)[C@H]1CC[C@H](CNC(=O)CCCCCCCCCCCCCCCCCCC(=O)O)CC1)C(=O)O)C(=O)O)C(C)C [Example 3] (H-H[Aib]EGTFTSDVSSYLEEQAAREFIAWLVRGRGK([AEEA-AEEA-γGlu-Trx-C20 diacid])GGSK([AEEA-AEEA-γGlu-Trx-C20 diacid])-OH)	0.043	185	1.2	147
CC[C@H](C)[C@H](NC(=O)[C@H](Cc1ccccc1)NC(=O)[C@H](CCC(=O)O)NC(=O)[C@H](CCCNC(=N)N)NC(=O)[C@H](C)NC(=O)[C@H](C)NC(=O)[C@H](CCC(N)=O)NC(=O)[C@H](CCC(=O)O)NC(=O)[C@H](CCC(=O)O)NC(=O)[C@H](CC(C)C)NC(=O)[C@H](Cc1ccc(O)cc1)NC(=O)[C@H](CO)NC(=O)[C@H](CO)NC(=O)[C@@H](NC(=O)[C@H](CC(=O)O)NC(=O)[C@H](CO)NC(=O)[C@@H](NC(=O)[C@H](Cc1ccccc1)NC(=O)[C@@H](NC(=O)CNC(=O)[C@H](CCC(=O)O)NC(=O)C(C)(C)NC(=O)[C@@H](N)Cc1c[nH]cn1)[C@@H](C)O)[C@@H](C)O)C(C)C)C(=O)N[C@@H](C)C(=O)N[C@@H](CCCCNC(=O)COCCOCCNC(=O)COCCOCCNC(=O)CC[C@H](NC(=O)[C@H]1CC[C@H](CNC(=O)CCCCCCCCCCCCCCCCCCC(=O)O)CC1)C(=O)O)C(=O)N[C@@H](CC(C)C)C(=O)N[C@H](C(=O)N[C@@H](CCCNC(=N)N)C(=O)NCC(=O)N[C@@H](CCCNC(=N)N)C(=O)NCC(=O)NCC(=O)NCC(=O)NCC(=O)N[C@@H](CO)C(=O)N[C@@H](CCCCNC(=O)COCCOCCNC(=O)COCCOCCNC(=O)CC[C@H](NC(=O)[C@H]1CC[C@H](CNC(=O)CCCCCCCCCCCCCCCCCCC(=O)O)CC1)C(=O)O)C(=O)O)C(C)C [Example 2] (H-H[Aib]EGTFTSDVSSYLEEQAAREFIAK([AEEA-AEEA-γGlu-Trx-C20 diacid])LVRGRGGGGSK([AEEA-AEEA-γGlu-Trx-C20 diacid])-OH)	0.036	≥ 1000	1.4	110
